Measured values reported in patent publication US8680052B1, “Methods of treating, reducing the incidence of, and/or preventing ischemic events” (The Medicines Company, priority 2013, dated 2014).
Read-outs that look alike come from different tables or passages of the source. One block for each molecule: values may come before it.

Tests used:
P2Y12 receptor = molecular target: T1, P2Y12 receptor (Homo sapiens, UniProt Q9H244); assay: Example 4: VerifyNow P2Y12 assay, platelet reactivity in PRU; format: in vivo
T1 construct: from tissue; host or cells: platelets in whole blood of patients
T1 sequence (Q9H244 whole entry): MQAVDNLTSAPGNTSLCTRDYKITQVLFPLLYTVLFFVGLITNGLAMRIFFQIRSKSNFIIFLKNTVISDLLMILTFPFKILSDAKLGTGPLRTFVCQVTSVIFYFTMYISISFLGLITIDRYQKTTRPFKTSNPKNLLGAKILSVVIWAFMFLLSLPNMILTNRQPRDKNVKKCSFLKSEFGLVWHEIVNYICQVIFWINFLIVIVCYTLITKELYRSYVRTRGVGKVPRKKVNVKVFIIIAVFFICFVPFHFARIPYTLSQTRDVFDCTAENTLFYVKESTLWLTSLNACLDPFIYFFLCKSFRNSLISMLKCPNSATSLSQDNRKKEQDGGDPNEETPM
Experimental: The study involved 12 patients who met the criteria of being 18-75 years of age, having coronary artery disease (CAD) documented by a previous MI or coronary revascularization, and taking 81 mg of aspirin daily. […] Use of non-steroidal anti-inflammatory agents was discouraged during study participation but not prohibited.
Each patient was administered a 30 μg/kg bolus of cangrelor followed immediately by a 2 hr infusion at a rate of 4.0 μg/kg/min. A loading dose of ticagrelor (180 mg) was given after 0.5 hr or 1.25 hr (n=6 for each). Blood for pharmacodynamic platelet function studies was taken after 0.5 or 1.25 hr (corresponding to the time of ticagrelor load, n=6 for each), and then at 1.75, 2, 2.25, 2.5, 2.75, 3, 4, and 5.25 hr. Patients were assigned randomly to receive either 6 (n=6) or 7 (n=6) doses of ticagrelor to be taken every 12 hours following the discontinuation of the infusion of cangrelor. On study day 5, each patient was administered a 30 μg/kg bolus of cangrelor followed immediately by a 2 hr infusion at a rate of 4.0 μg/kg/min. Blood for pharmacodynamic assessment was taken after 1 and 2 hr. Adverse events were queried throughout study participation that ended with a telephone interview performed on study day 10-12.
Pharmacodynamic assessment included light transmission aggregometry (LTA), VerifyNow® P2Y12 assay, vasodilator-stimulated phosphoprotein (VASP) index, and platelet activation measured with the use of flow cytometry. Assessment of LTA, VerifyNow®, and platelet activation with the use of flow cytometry was performed within 30 min of blood being taken. In the case of flow cytometry, samples were processed to fixation and then batched for analysis. For VASP, index samples were batched and processed as recommended by the vendor within 2 h of blood being taken. This approach limited the time from fixation of VASP index to flow analysis to less than 1 h.
LTA induced by 5 μM and 20 μM adenosine diphosphate (ADP) was quantified ex vivo (i.e. in non-adjusted platelet rich plasma). Platelet-poor plasma was set as 100% aggregation, and both maximal (peak) and terminal (at 300 s) aggregation were measured with a PAP4 aggregometer (BioData, Horsham, Pa.). VerifyNow® P2Y12 assay (Accumetrics Inc, San Diego, Calif.) that measures the effects of drugs on the P2Y12 receptor by activating platelets with prostaglandin El in addition to ADP was used in accordance with the instructions provided by the manufacturer. Platelet reactivity was expressed in P2Y12 reaction units (PRU). Activation of platelets was identified with the use of flow cytometry as previously described.^17. And to determine the VASP index, a commercially available kit (Diagnostica Stago, Inc, Parsippany NJ) was used. ^17 Schneider D J, Sobel B E. Streamlining the design of promising clinical trials: in-vitro testing of antithrombotic regimens and multiple agonists of platelet activation. Coron Artery Dis. 2009; 20:175-8.

[1] = system: patients with atherosclerosis undergoing PCI
Experimental: The protocol called for aspirin (75 to 325 mg) to be administered to all patients. […] The choice of a periprocedural anticoagulant (bivalirudin, unfractionated heparin, low-molecular-weight heparin, or fondaparinux) was also at the discretion of the investigator. Glycoprotein IIb/IIIa inhibitors were allowed only as rescue therapy during PCI to treat new or persistent thrombus formation, slow or no reflow, side-branch compromise, dissection, or distal embolization. The investigator at the site determined the protocol for management of the arterial sheath.
The inclusion criteria for the trial were men or nonpregnant women, 18 years of age or older with coronary atherosclerosis who required PCI for stable angina, a non-ST-segment elevation acute coronary syndrome, or ST-segment elevation myocardial infarction (STEMI). Patients were required to provide written informed consent.
Major exclusion criteria were receipt of a P2Y12 inhibitor or abciximab at any time in the 7 days before randomization and receipt of eptifibatide or tirofiban or fibrinolytic therapy in the 12 hours before randomization.
The primary efficacy end point was the composite rate of death from any cause, myocardial infarction, IDR, or stent thrombosis in the 48 hours after randomization in the modified intention-to-treat population (which comprised patients who actually underwent PCI and received the study drug). […] The key secondary end point was the incidence of stent thrombosis at 48 hours. This end point included definite stent thrombosis, defined according to the criteria of the Academic Research Consortium, or intraprocedural stent thrombosis, which was assessed, with group assignments concealed, at an angiographic core laboratory (Cardiovascular Research Foundation). Intraprocedural stent thrombosis was defined as any new or worsened thrombus related to the stent procedure that was confirmed angiographically. Events of death, myocardial infarction, IDR, and stent thrombosis that occurred during the first 30 days after randomization were adjudicated by the clinical events committee at the Duke Clinical Research Institute. The study adhered to the universal definition of myocardial infarction for myocardial infarction unrelated to PCI but expanded on the definition of PCI-related myocardial infarction.
The numbers and percentages of patients within each analysis population (modified intention-to-treat, intention-to-treat, and safety) were summarized according to treatment group. The primary efficacy analysis of the rate of the composite end point of death from any cause, myocardial infarction, IDR, or stent thrombosis (with all events adjudicated by the clinical events committee) in the 48 hours after randomization was conducted in the modified intention-to-treat population. The primary safety analysis was conducted in the safety population, which comprised all patients who underwent randomization and received at least one dose of the study drug; patients were classified according to the actual treatment received. All calculations and statistical analyses were performed with the use of SAS software, version 9.2.

[2] = reference 5.25 h, Ticagrelor at 0.5 h
[3] = reference 5.25 h, Ticagrelor at 1.25 h
[4] = 48 hours, ITT, rate in parentheses

VerifyNow IPR (P2Y12 receptor; 2.25 h, All): 89 ± 11 | VerifyNow PRU (P2Y12 receptor; 2.25 h, All): 28 ± 28 PRU | VerifyNow IPR (P2Y12 receptor; 2.25 h, Ticagrelor at 0.5 h): 90 ± 10 | VerifyNow PRU (P2Y12 receptor; 2.25 h, Ticagrelor at 0.5 h): 28 ± 27 PRU | VerifyNow IPR (P2Y12 receptor; 2.25 h, Ticagrelor at 1.25 h): 89 ± 14 | VerifyNow PRU (P2Y12 receptor; 2.25 h, Ticagrelor at 1.25 h): 28 ± 32 PRU | VerifyNow IPR (P2Y12 receptor; 2.5 h, All): 70 ± 31 | VerifyNow PRU (P2Y12 receptor; 2.5 h, All): 76 ± 79 PRU | VerifyNow IPR (P2Y12 receptor; 2.5 h, Ticagrelor at 0.5 h): 78 ± 24 | VerifyNow PRU (P2Y12 receptor; 2.5 h, Ticagrelor at 0.5 h): 60 ± 64 PRU | VerifyNow IPR (P2Y12 receptor; 2.5 h, Ticagrelor at 1.25 h): 62 ± 37 | VerifyNow PRU (P2Y12 receptor; 2.5 h, Ticagrelor at 1.25 h): 93 ± 94 PRU | VerifyNow IPR (P2Y12 receptor; 2.75 h, All): 83 ± 21 | VerifyNow PRU (P2Y12 receptor; 2.75 h, All): 44 ± 50 PRU | VerifyNow IPR (P2Y12 receptor; 2.75 h, Ticagrelor at 0.5 h): 84 ± 15 | VerifyNow PRU (P2Y12 receptor; 2.75 h, Ticagrelor at 0.5 h): 44 ± 40 PRU | VerifyNow IPR (P2Y12 receptor; 2.75 h, Ticagrelor at 1.25 h): 82 ± 27 | VerifyNow PRU (P2Y12 receptor; 2.75 h, Ticagrelor at 1.25 h): 44 ± 62 PRU | VerifyNow IPR (P2Y12 receptor; 3 h, All): 88 ± 19 | VerifyNow PRU (P2Y12 receptor; 3 h, All): 31 ± 46 PRU | VerifyNow IPR (P2Y12 receptor; 3 h, Ticagrelor at 0.5 h): 87 ± 16 | VerifyNow PRU (P2Y12 receptor; 3 h, Ticagrelor at 0.5 h): 35 ± 42 PRU | VerifyNow IPR (P2Y12 receptor; 3 h, Ticagrelor at 1.25 h): 88 ± 23 | VerifyNow PRU (P2Y12 receptor; 3 h, Ticagrelor at 1.25 h): 28 ± 53 PRU | VerifyNow IPR (P2Y12 receptor; 4 h, All): 96 ± 4 | VerifyNow PRU (P2Y12 receptor; 4 h, All): 10 ± 10 PRU | VerifyNow IPR (P2Y12 receptor; 4 h, Ticagrelor at 0.5 h): 97 ± 2 | VerifyNow PRU (P2Y12 receptor; 4 h, Ticagrelor at 0.5 h): 7.3 ± 4.4 PRU | VerifyNow IPR (P2Y12 receptor; 4 h, Ticagrelor at 1.25 h): 95 ± 5 | VerifyNow PRU (P2Y12 receptor; 4 h, Ticagrelor at 1.25 h): 14 ± 14 PRU | VerifyNow IPR (P2Y12 receptor; reference 5.25 h, All): 96 ± 4 | VerifyNow PRU (P2Y12 receptor; reference 5.25 h, All): 9.5 ± 9.7 PRU | VerifyNow IPR (P2Y12 receptor; [2]): 97 ± 2 | VerifyNow PRU (P2Y12 receptor; [2]): 7.7 ± 5.3 PRU | VerifyNow IPR (P2Y12 receptor; [3]): 96 ± 4 | VerifyNow PRU (P2Y12 receptor; [3]): 11 ± 7 PRU
SMILES: CCCSc1nc(N[C@@H]2C[C@H]2c2ccc(F)c(F)c2)c2nnn([C@@H]3C[C@H](OCCO)[C@@H](O)[C@H]3O)c2n1 [ticagrelor]

SMILES: COC(=O)[C@H](c1ccccc1Cl)N1CCc2sccc2C1 [Clopidogrel, clopidogrel, reference compound]
rate of stent thrombosis (key secondary efficacy end point) ([1]; 48 hours): 1.4% | Death ([1]; 48 hours, ITT, n/N): 21/5561 | Death/MI ([1]; 48 hours, ITT, n/N): 275/5561 | Death/MI/IDR ([1]; 48 hours, ITT, n/N): 289/5561 | Death/MI/IDR/ST ([1]; 48 hours, ITT, n/N): 325/5561 | Death/MI/IDR/ST/GUSTO Severe Bleeding (Net Adverse Clinical Events, NACE) ([1]; 48 hours, ITT, n/N): 330/5561 | Death/MI/ST ([1]; 48 hours, ITT, n/N): 315/5561 | Death/Q-wave MI/IDR ([1]; 48 hours, ITT, n/N): 67/5561 | Death/ST ([1]; 48 hours, ITT, n/N): 90/5561 | IDR ([1]; 48 hours, ITT, n/N): 38/5561 | MI ([1]; 48 hours, ITT, n/N): 255/5561 | Q-wave MI ([1]; 48 hours, ITT, n/N): 18/5561 | Stent thrombosis ([1]; 48 hours, ITT, n/N): 74/5561 | Death [1, 4]: (0.4) | Death/MI [1, 4]: (5.0) | Death/MI/IDR [1, 4]: (5.2) | Death/MI/IDR/ST [1, 4]: (5.8) | Death/MI/IDR/ST/GUSTO Severe Bleeding (Net Adverse Clinical Events, NACE) [1, 4]: (5.9) | Death/MI/ST [1, 4]: (5.7) | Death/Q-wave MI/IDR [1, 4]: (1.2) | Death/ST [1, 4]: (1.6) | IDR [1, 4]: (0.7) | MI [1, 4]: (4.6) | Q-wave MI [1, 4]: (0.3) | Stent thrombosis [1, 4]: (1.3) | rate of primary composite efficacy end point (death from any cause, myocardial infarction, IDR, or stent thrombosis) ([1]; 48 hours, modified intention-to-treat): 5.9% | net rate of adverse clinical events (primary efficacy plus primary safety end point) ([1]; 48 hours, post hoc): 6.0% | Stent thrombosis ([1]; 30 days): 1.9% | rate of the composite efficacy end point ([1]; 30 days): 7.0% | rate of intraprocedural stent thrombosis ([1]; in vivo): 1.0% | rate of procedural complications ([1]; in vivo): 4.5% | use of rescue therapy with a glycoprotein IIb/IIIa inhibitor ([1]; in vivo): 3.5%
